In experiment [1] the target is PI3Kδ (p110δ/p85α) Recombinant Human Protein (Homo sapiens (Human), UniProt O00329). As to the kind of experiment: PI3Kδ scintillation proximity assay. Type of experiment: biochemical. The following applies: 20 μM PIP2, 2 μM ATP, 3.4 nM PI3Kδ, 120 min, room temperature; read-out: PI3Kδ IC50. In a few lines:
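Recombinant human p110δ/p85α was run at room temperature in 20 mM MOPS pH 6.7, 10 mM MgCl2, 5 mM DTT, 0.03% CHAPS, 2% DMSO. Substrates were 20 µM PIP2 and 2 µM ATP with [γ-33P]ATP. Product was captured overnight on WGA SPA beads and counted by scintillation; IC50 fitted from percent of solvent control versus log concentration.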

For experiment [2], the system named is Phosphorylated Ribosomal Protein S6 (RPS6) in THP-1 cells. As to the kind of experiment: THP-1 RPS6 ELISA assay. The experiment is classed as cell-based, Human. The following applies: serum starved, 2 h compound, 10 nM MCP-1 for 15 min, phospho-RPS6 ELISA, read-out: PI3Kγ_THP1_RPS6_ELISA IC50. As to the method:
Example A. THP-1 RPS6 ELISA Assay
To measure the Phosphorylated Ribosomal Protein S6 (RPS6) in cell lysates, THP-1 cells (Human Acute Monocytic Leukemia) are purchased from ATCC (Manassas, Va.) and maintained in RPMI with 10% FBS (Gibco/Life Technologies, Carlsbad, Calif.). For the assay, THP-1 cells are serum starved overnight in RPMI, then plated in RPMI (2×10^5 cells/well in 90 μL) into 96-well flat-bottom tissue culture treated plates (Corning, Corning, N.Y.), in the presence or absence of a concentration range of test compounds. Covered plates are incubated for 2 hours at 37° C., 5% CO2 then treated with or without 10 nM MCP-1 (MYBioSource, San Diego, Calif.) for 15 minutes at 37° C., 5% CO2. Plates are centrifuged at 1600 RPM and supernatants are removed. Cells are lysed in Lysis Buffer (Cell Signaling, Danvers, Mass.) with Protease Inhibitor (Calbiochem/EMD, Germany), PMSF (Sigma, St Louis Mo.), HALTS (Thermo Fisher, Rockford, Ill.) for 30 min on wet ice. Cell lysates are frozen at −80° C. before testing. The lysates are tested in the Human/Mouse/Rat Phospho-RPS6 ELISA (R&D Systems, Inc. Minn, Minn.). The plate is measured using a microplate reader (SpectraMax M5—Molecular Devices, LLC Sunnyvale, Calif.) set to 450 nm with a wavelength correction of 540. IC50 determination is performed by fitting the curve of inhibitor percent inhibition versus the log of the inhibitor concentration using the GraphPad Prism 5.0 software.
For orientation: ELISA stands for enzyme-linked immunosorbent assay.

The target of experiment [3] is PI3Kγ (p110γ) Recombinant Human Protein (Homo sapiens (Human), UniProt P48736). As to the kind of experiment: PI3K-γ scintillation proximity assay. The experiment is classed as biochemical. The following applies: 20 μM PIP2, 2 μM ATP, 13 nM PI3Kγ, 120 min, room temperature. In short, it runs like this:
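Radiometric SPA in 20 mM MOPS pH 6.7, 10 mM MgCl2, 5 mM DTT, 0.03% CHAPS, 2% DMSO. Stopped with EDTA and WGA SPA beads for scintillation counting. IC50 fitted from % solvent-control activity versus log concentration.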
A general note: In a scintillation proximity assay essentially only radioactivity close to the scintillant gives light.

The mark [4] stands for this setting: Homo sapiens, THP-1, THP-1 cells.

Counter-ions that a name gives are not always drawn. Like-named read-outs stand apart in the source and are kept apart here. Bounds are passed on as bounds.

The IC50 is the midpoint of a concentration-inhibition curve.

PI3Kδ (p110δ/p85α) Recombinant Human Protein, sequence (O00329 whole entry): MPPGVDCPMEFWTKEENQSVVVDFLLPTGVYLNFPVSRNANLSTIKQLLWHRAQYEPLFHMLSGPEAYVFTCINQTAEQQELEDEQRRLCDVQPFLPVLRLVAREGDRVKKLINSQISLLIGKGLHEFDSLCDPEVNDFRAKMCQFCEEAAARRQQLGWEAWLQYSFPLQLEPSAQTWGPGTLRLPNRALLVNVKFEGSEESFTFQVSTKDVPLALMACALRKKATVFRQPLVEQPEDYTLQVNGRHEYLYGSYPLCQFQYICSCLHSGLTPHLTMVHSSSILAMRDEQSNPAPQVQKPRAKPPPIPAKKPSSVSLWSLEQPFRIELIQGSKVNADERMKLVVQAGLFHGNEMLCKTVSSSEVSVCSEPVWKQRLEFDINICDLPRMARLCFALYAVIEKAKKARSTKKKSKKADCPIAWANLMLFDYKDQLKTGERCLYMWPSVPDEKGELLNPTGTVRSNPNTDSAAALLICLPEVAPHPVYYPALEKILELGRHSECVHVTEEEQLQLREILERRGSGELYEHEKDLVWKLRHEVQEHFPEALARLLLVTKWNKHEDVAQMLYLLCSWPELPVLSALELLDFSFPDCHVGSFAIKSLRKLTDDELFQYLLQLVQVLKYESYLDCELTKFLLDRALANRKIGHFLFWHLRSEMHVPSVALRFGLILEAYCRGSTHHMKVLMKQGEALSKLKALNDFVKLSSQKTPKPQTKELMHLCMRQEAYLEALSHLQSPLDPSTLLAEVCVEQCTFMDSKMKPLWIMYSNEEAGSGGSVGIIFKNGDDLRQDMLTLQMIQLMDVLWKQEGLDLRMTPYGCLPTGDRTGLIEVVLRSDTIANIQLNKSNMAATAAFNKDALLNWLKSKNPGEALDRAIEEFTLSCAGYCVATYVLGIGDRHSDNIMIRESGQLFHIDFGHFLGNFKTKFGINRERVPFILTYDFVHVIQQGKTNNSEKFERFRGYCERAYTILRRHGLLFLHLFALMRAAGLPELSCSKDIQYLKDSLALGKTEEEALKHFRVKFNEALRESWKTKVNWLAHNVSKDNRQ
PI3Kδ (p110δ/p85α) Recombinant Human Protein, sequence (P27986 whole entry partner): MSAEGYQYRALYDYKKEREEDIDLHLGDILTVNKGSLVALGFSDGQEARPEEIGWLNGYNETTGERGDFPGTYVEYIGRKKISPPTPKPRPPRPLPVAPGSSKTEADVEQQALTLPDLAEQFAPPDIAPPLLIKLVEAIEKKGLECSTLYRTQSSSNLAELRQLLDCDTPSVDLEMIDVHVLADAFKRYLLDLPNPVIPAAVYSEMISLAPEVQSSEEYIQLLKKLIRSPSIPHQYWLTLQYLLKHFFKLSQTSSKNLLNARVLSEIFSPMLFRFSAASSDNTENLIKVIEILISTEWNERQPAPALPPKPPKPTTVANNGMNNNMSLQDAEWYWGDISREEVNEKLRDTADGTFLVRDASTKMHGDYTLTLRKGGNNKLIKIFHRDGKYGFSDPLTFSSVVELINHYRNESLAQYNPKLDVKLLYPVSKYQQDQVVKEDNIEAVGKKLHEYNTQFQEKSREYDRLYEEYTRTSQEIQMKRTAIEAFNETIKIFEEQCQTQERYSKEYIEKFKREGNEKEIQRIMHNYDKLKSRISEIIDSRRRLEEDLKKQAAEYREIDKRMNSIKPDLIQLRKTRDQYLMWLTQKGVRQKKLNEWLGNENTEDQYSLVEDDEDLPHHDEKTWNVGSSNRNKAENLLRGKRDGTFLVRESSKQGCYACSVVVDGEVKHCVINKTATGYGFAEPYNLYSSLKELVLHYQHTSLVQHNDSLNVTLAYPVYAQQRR
PI3Kγ (p110γ) Recombinant Human Protein, sequence (P48736 whole entry): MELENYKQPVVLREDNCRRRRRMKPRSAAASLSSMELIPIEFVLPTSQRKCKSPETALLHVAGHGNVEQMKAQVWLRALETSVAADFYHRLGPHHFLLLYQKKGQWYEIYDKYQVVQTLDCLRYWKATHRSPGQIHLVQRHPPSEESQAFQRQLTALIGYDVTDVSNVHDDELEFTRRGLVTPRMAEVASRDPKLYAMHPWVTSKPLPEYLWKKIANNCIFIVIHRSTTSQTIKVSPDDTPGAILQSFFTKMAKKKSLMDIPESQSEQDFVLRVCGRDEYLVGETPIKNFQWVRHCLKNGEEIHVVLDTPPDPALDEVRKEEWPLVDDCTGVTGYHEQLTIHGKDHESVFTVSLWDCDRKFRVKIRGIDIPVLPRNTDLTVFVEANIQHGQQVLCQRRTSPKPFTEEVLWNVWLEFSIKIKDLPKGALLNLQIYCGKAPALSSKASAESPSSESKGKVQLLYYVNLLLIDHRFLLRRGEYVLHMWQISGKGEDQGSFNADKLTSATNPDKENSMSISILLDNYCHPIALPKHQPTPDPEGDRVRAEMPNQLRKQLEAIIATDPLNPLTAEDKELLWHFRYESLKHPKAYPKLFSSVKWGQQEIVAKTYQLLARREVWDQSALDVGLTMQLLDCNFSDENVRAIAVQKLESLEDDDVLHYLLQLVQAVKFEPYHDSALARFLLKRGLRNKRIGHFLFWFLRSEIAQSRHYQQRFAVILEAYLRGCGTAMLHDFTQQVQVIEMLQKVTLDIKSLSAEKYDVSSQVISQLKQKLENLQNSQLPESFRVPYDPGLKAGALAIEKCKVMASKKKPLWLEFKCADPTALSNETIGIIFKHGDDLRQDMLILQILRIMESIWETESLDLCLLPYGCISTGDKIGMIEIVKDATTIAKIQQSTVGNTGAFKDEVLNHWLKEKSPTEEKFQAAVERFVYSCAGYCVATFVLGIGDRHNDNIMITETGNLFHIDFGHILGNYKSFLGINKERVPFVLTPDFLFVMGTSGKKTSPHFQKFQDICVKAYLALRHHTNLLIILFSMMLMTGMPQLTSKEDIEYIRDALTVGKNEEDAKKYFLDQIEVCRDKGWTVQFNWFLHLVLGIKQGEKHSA

As to `Cc1ccc(C(C)(O)C(F)(F)F)cc1-c1cnc2c(N)nc(C(=O)NCC(C)(C)O)cn12` (single isomer, unassigned) [Example 63, 8-amino-N-(2-hydroxy-2-methylpropyl)-3-(2-methyl-5-(1,1,1-trifluoro-2-hydroxypropan-2-yl)phenyl)imidazo[1,2-a]pyrazine-6-carboxamide], the figures for the IC50 in experiment [1], in experiment [2] (THP-1 cells) and in experiment [3] were 100 to 500 nM, 100 to 500 nM and below 100 nM, respectively.
For `[2H]C([2H])([2H])n1nccc1-c1cn2c(-c3cc(C(O)(CO)C(F)(F)F)ccc3C)cnc2c(N)n1` (single isomer, unassigned) [Example 66, 2-(3-(8-Amino-6-(1-(methyl-d3)-1H-pyrazol-5-yl)imidazo[1,2-a]pyrazin-3-yl)-4-methylphenyl)-3,3,3-trifluoropropane-1,2-diol], the IC50 in experiment [1], in experiment [2] (setting [4]) and in experiment [3] was below 100 nM in each case.
Take `Cc1ccc(C(O)(CO)C(F)(F)F)cc1-c1cnc2c(N)nc(C(F)(F)F)cn12` (single isomer, unassigned) [Example 72, 2-(3-(8-Amino-6-(trifluoromethyl)imidazo[1,2-a]pyrazin-3-yl)-4-methylphenyl)-3,3,3-trifluoropropane-1,2-diol]: the IC50 in experiment [1] is 100 to 500 nM; in experiment [2] (THP-1 cells), below 100 nM; in experiment [3] it was below 100 nM.
As to `Cc1ccc(C(O)(CO)C(F)(F)F)cc1-c1cnc2c(N)nc(C(F)(F)F)cn12` (single isomer, unassigned) [Example 73, 2-(3-(8-Amino-6-(trifluoromethyl)imidazo[1,2-a]pyrazin-3-yl)-4-methylphenyl)-3,3,3-trifluoropropane-1,2-diol], the IC50 was 100 to 500 nM in experiment [1], 500 to 1000 nM in experiment [2] (THP-1 cells) and below 100 nM in experiment [3].
Turning to `CCOC(=O)C1CC1c1cn2c(-c3cc(C(C)(O)C(F)F)ccc3C)cnc2c(N)n1` (single isomer, unassigned) [Example 75, Ethyl 2-(8-amino-3-(5-(1,1-difluoro-2-hydroxypropan-2-yl)-2-methylphenyl)imidazo[1,2-a]pyrazin-6-yl)cyclopropane-1-carboxylate trifluoroacetate salt], the IC50 in experiment [1] was 100 to 500 nM; in experiment [2] (setting [4]), 100 to 500 nM; in experiment [3], below 100 nM.
As to `Cc1ccc(C(C)(O)C(F)F)cc1-c1cnc2c(N)nc(C3CC3CO)cn12` (single isomer, unassigned) [Example 79, 2-(3-(8-Amino-6-(2-(hydroxymethyl)cyclopropyl)imidazo[1,2-a]pyrazin-3-yl)-4-methylphenyl)-1,1-difluoropropan-2-ol], the IC50 in experiment [1] is 500 to 2000 nM; in experiment [2] (setting [4]), 100 to 500 nM; in experiment [3], below 100 nM.
The like results for `Cc1ccc(C(C)(O)C(F)(F)F)cc1-c1cnc2c(N)nc(C(=O)N[C@@H](B(O)O)C3CCC3)cn12` (single isomer, unassigned) [Example 117] were, in that order, 500 to 2000 nM, above 1000 nM and below 100 nM.
The like results for `Cc1ccc(C(C)(O)C(F)F)cc1-c1cnc2c(N)nc(-c3ccc(C(C)O)nc3)cn12` (single isomer, unassigned) [Example 136, 2-(3-(8-Amino-6-(6-(1-hydroxyethyl)pyridin-3-yl)imidazo[1,2-a]pyrazin-3-yl)-4-methylphenyl)-1,1-difluoropropan-2-ol] were, in that order, 100 to 500 nM, below 100 nM and below 100 nM.
In the case of `Cc1ccc(C(C)(O)C(F)(F)F)cc1-c1cnc2c(N)nc(C3CC(CO)C3)cn12` (single isomer, unassigned) [Example 207, 2-(3-(8-amino-6-(3-(hydroxymethyl)cyclobutyl)imidazo[1,2-a]pyrazin-3-yl)-4-methylphenyl)-1,1,1-trifluoropropan-2-ol trifluoroacetate], the IC50 in experiment [1], in experiment [2] (setting [4]) and in experiment [3] was below 100 nM each time.
As for `Cc1ccc(C(C)(O)C(F)(F)F)cc1-c1cnc2c(N)nc(C3CC(CO)C3)cn12` (single isomer, unassigned) [Example 208, 2-(3-(8-amino-6-(3-(hydroxymethyl)cyclobutyl)imidazo[1,2-a]pyrazin-3-yl)-4-methylphenyl)-1,1,1-trifluoropropan-2-ol trifluoroacetate], the IC50 in experiment [1], in experiment [2] (THP-1 cells) and in experiment [3] was below 100 nM each time.
For `[2H]C([2H])([2H])c1ccc(C(O)(C(C)O)C(F)(F)F)cc1-c1cnc2c(N)nc(C(F)(F)F)cn12` (single isomer, unassigned) [Example 233, 2-(3-(8-Amino-6-(trifluoromethyl)imidazo[1,2-a]pyrazin-3-yl)-4-(methyl-d3)phenyl)-1,1,1-trifluorobutane-2,3-diol trifluoroacetate salt], the IC50 is 100 to 500 nM in experiment [1], 100 to 500 nM in experiment [2] (setting [4]) and below 100 nM in experiment [3].
On to `[2H]C([2H])([2H])c1ccc(C(C)(O)C(F)(F)F)cc1-c1cnc2c(N)nc(C(C)(C)O)cn12` (single isomer, unassigned) [Example 253, 2-(3-(8-Amino-6-(2-hydroxypropan-2-yl)imidazo[1,2-a]pyrazin-3-yl)-4-(methyl-d3)phenyl)-1,1,1-trifluoropropan-2-ol trifluoroacetate salt], for which the results for the 50% inhibitory concentration (IC50) in experiment [1], in experiment [2] (setting [4]) and in experiment [3] were 100 to 500 nM, 100 to 500 nM and below 100 nM, respectively.
Regarding `Cc1ccc(C(C)(O)C(F)(F)F)cc1-c1cnc2c(N)nc(C(F)(F)F)nn12` (stereo not drawn) [Example 1, 2-(3-(4-Amino-2-(trifluoromethyl)imidazo[2,1-f][1,2,4]triazin-7-yl)-4-methylphenyl)-1,1,1-trifluoropropan-2-ol], the values for the IC50 in experiment [1], in experiment [2] (setting [4]) and in experiment [3] were 100 to 500 nM, 100 to 500 nM and below 100 nM, respectively.
With `Cc1nc(N)c2ncc(-c3cc(C(C)(O)C(F)(F)F)ccc3C)n2n1` (stereo not drawn) [Example 2, 2-(3-(4-Amino-2-methylimidazo[2,1-f][1,2,4]triazin-7-yl)-4-methylphenyl)-1,1,1-trifluoropropan-2-ol], the figures for the IC50 in experiment [1], in experiment [2] (setting [4]) and in experiment [3] were 500 to 2000 nM, 500 to 1000 nM and below 100 nM, respectively.
The like results for `Cc1ccc(C(C)(O)C(F)(F)F)cc1-c1cnc2c(N)nc(C(F)(F)F)cn12` (stereo not drawn) [Example 4, 2-(3-(8-Amino-6-(trifluoromethyl)imidazo[1,2-a]pyrazin-3-yl)-4-methylphenyl)-1,1,1-trifluoropropan-2-ol] were, in that order, 100 to 500 nM, 100 to 500 nM and below 100 nM.
The like results for `COC(=O)c1cn2c(-c3cc(C(C)(O)C(F)(F)F)ccc3C)cnc2c(N)n1` (stereo not drawn) [Example 8, Methyl 8-amino-3-(2-methyl-5-(1,1,1-trifluoro-2-hydroxypropan-2-yl)phenyl)imidazo[1,2-a]pyrazine-6-carboxylate] were, in that order, 500 to 2000 nM, 500 to 1000 nM and below 100 nM.
For `CNC(=O)c1cn2c(-c3cc(C(C)(O)C(F)(F)F)ccc3C)cnc2c(N)n1` (stereo not drawn) [Example 9, 8-Amino-N-methyl-3-(2-methyl-5-(1,1,1-trifluoro-2-hydroxypropan-2-yl)phenyl)imidazo[1,2-a]pyrazine-6-carboxamide], in that order: 100 to 500 nM, 100 to 500 nM and below 100 nM.

These data come from patent US10738057B2, “Tertiary alcohols as PI3K-γ inhibitors” (Incyte Corporation, priority 2017, dated 2020).
